Results published in publication PMC7481839, “Switchable foldamer ion channels with antibacterial activity” (Chemical Science, 2020).
Where a SMILES comes first, the peptide text is derived from it.

Test: Planar bilayer conductance (PBC) studies
Format: biochemical
Conditions: +100 or –100 mV, 50 s sweeps, up to 2 h, final concentration 8.3 µM, 20 mM MOPS, 100 mM NaCl or KCl, pH 7.4
Experimental: The observation of discrete conductance events can indicate channel formation and provide information on the nature of these channels.
PBC experiments were performed in a custom-built cell, with either 2 or Cu(II)[2]Cl2 (5–10 μL of a 1 mM solution in MeOH) added to the ground well. Characterisation sweeps were continued for 2 h, or until substantial channel-forming activity was observed. Single channel experiments were conducted under an applied potential of +100 or –100 mV in 50 s sweeps. […] Large current levels and reproducible well-defined quantized steps from 0.5 to 5 ms in duration (similar to the “flicker” behaviour described by Chui and Fyles[42]) were measured (Fig. 6). […] This could imply [Cu(II)[2]Cl]^+ cations[44] are involved in the channel-forming species. Channel events have multilevel conductances, both at +100 mV (∼0.08 nS, ∼0.14 nS) and at –100 mV potentials (∼0.08 nS, ∼0.15 nS).
The blue product from the addition of CuCl to 2 was also assessed using PBC experiments. […] In addition, much longer lived “square topped” openings could also be observed (Fig. 6b). These very regular well-defined quantized current steps were open for up to 20 ms at +100 mV, with multiple stepwise increases in conductance with ∼0.18 nS increments.[46] […]

## CC(C)(NC(=O)C(C)(C)NC(=O)C(C)(C)NC(=O)C(C)(C)NC(=O)C(C)(C)n1cc(CN(Cc2ccccn2)Cc2ccccn2)nn1)C(=O)NC(C)(C)C(=O)NC(C)(C)C(=O)NC(C)(C)C(=O)OCC[Si](C)(C)C [foldamer 2] (HELM PEPTIDE1{[CC(C)(C(=O)[*:2])n1cc(CN(Cc2ccccn2)Cc2ccccn2)nn1].[Aib].[Aib].[Aib].[Aib].[Aib].[Aib].[Aib].[C[Si](C)(C)CCO[*:1]]}$$$$V2.0)
  ion channel behaviour in PBC: did not display any ion channel behaviour
